Laboratory results: US20040077640A1 (priority 2000, published 2004)
Where a name gives a salt, the structure may show the parent alone.

melting point [°C]	Structure (SMILES)
226 to 227	c1ccc(-c2ccc(-c3c[nH]c(C4CCCNC4)n3)cc2)cc1 (stereo not drawn) (as salt: hydrochloride) [Example 22, 3-[4-(1,1′-biphenyl-4-yl)-1H-imidazol-2-yl]piperidine]
73 to 74	CCCCOC(=O)N1CCC(c2nc(-c3ccc(-c4ccccc4)cc3)c[nH]2)CC1 [Example 20, butyl 4-[4-(1,1′-biphenyl-4-yl)-1H-imidazol-2-yl]piperidine-1-carboxylate]
116 to 117	CCCCOC(=O)N1CCCC(c2nc(-c3ccc(-c4ccccc4)cc3)c[nH]2)C1 (stereo not drawn) [Example 24, butyl 3-[4-(1,1′-biphenyl-4-yl)-1H-imidazol-2-yl]piperidine-1-carboxylate]
166 to 167	CCCCOC(=O)N1CCCCC1c1nc(-c2ccc(-c3ccccc3)cc2)c[nH]1 (stereo not drawn) [Example 23, butyl 2-[4-(1,1′-biphenyl-4-yl)-1H-imidazol-2-yl]piperidine-1-carboxylate]
48 to 50	CCCCOC(=O)N1CCC(c2nc(-c3ccc(OC)cc3)c[nH]2)CC1 [Example 26, butyl 4-[4-(4-methoxyphenyl)-1H-imidazol-2-yl]piperidine-1-carboxylate]

Further lines, the compound ahead of its results:

Structure (SMILES)	melting point [°C]
CCCCCCN1CCC(c2nc(-c3ccc(-c4ccccc4)cc3)c[nH]2)CC1 [Example 19, 4-[4-(1,1′-biphenyl-4-yl)-1H-imidazol-2-yl]-1-hexylpiperidine]	138 to 139
Fc1ccc(-c2c[nH]c(C3CCCCN3Cc3ccccc3)n2)cc1 (stereo not drawn) [Example 17, 1-benzyl-2-[4-(4-fluorophenyl)-1H-imidazol-2-yl]piperidine]	181.6
Fc1ccc(-c2c[nH]c(C3CCNCC3)n2)cc1 (as salt: hydrochloride)	> 260
CCCCOC(=O)N1CCCC(c2nc(-c3ccc(F)cc3)c[nH]2)C1 (stereo not drawn)	96.5
CCCCOC(=O)N1CCC(c2nc(-c3ccc(C(C)(C)C)cc3)c[nH]2)CC1 [Example 13, butyl 4-[4-(4-tert-butylphenyl)-1H-imidazol-2-yl]piperidine-1-carboxylate]	98 to 100
Fc1ccc(-c2c[nH]c(C3CCCCN3)n2)cc1 (stereo not drawn) (as salt: hydrochloride)	222 to 223
CC(C)(C)OC(=O)N1CCC(c2nc(-c3ccc(F)cc3)c[nH]2)CC1	180 to 182
COc1ccc(-c2c[nH]c(C3CCNCC3)n2)cc1 (as salt: hydrochloride)	272 to 273
c1ccc(CN2CCC(c3nc(-c4ccc(-c5ccccc5)cc4)c[nH]3)CC2)cc1 [Example 12, 1-benzyl4-[4-(1,1′-biphenyl-4-yl)-1H-imidazol-2-yl]piperidine]	110 to 112
CCCCOC(=O)N1CCCCC1c1nc(-c2ccc(F)cc2)c[nH]1 (stereo not drawn)	157.4
